Measured values from patent US9249159B2, “Composition for treating hepatitis C virus, regulating phosphorylation of replicase” (Industry-Academic Cooperation Foundation, Yonsei University, priority 2011, dated 2016).

Tests used:
[1] = test system: genotype 1b HCV subgenomic replicon (R-1 cell line); test: HCV replication (HCV RNA by real-time RT-PCR, NS5B protein by Western blot) in R-1 subgenomic replicon cells; format: cell-based, hepatitis C virus genotype 1b; conditions: R-1 cell
From the text: In order to check a PRK2 phosphorylation inhibition effect of the novel inhibitors obtained in Example 1, R-1 cell line harboring HCV subgenomic replicons was used.
The R-1 cell line was comprised of cis-acting RNA elements of 5′ and 3′-end untranslated regions (UTR) essential for replication of HCV RNA, a selection marker inserted to select a replicated RNA into a portion from which a structural protein coding site was removed, and a non-structural protein (NS3-NS5B)-coding gene required for replication. In the replicon, the selection marker was expressed by the HCV 5′-UTR and internal ribosome entry site (IRES) as a part of a coding gene of a core protein as a structural protein and capsid protein, and HCV non-structural proteins were expressed by IRES of EMCV. In order to obtain replicon cells, a HCV subgenomic replicon RNA was obtained by means of in vitro transcription by using a T7 RNA polymerase, free ribonucleotide was removed by using a spin column, and introduced into a hepatocellular carcinoma cell line by electroporation. In the presence of G418, a stable cell line, i.e. a cell line showing a resistance to G418 through replication of HCV subgenome, was obtained. Expression of the HCV non-structural proteins in this cell line was analyzed by Western blot to confirm that replication was being carried out, and the R-1 cell line was constructed. It was observed that an HCV RNA copy number was about 10^7 copies/mL by a quantitative real-time PCR analysis using a TaqMan probe. The R-1 cell line was a cell line in which HCV RNA replication was being carried out, and thus it could be used to evaluate an HCV replication inhibition effect of a PRK2 activity inhibitor.
Then, after the R-1 cell line was treated with each of 5 screened PRK2 inhibitors, HA1077 currently and clinically used as a PRK2 activity inhibitor, and Y27632 having a PRK2 activity inhibition effect at a final concentration of 20 μM for 48 hours, levels of HCV NS5B protein and HCV RNA in cell lysates (50 μg) were analyzed by Western blot and real-time RT-PCR.
To do so, after the two cell lines were treated with the compound #17 at higher concentrations (60 and 100 μM) than 20 μM for 48 hours, an HCV RNA genome level was checked by a real-time RT-PCR analysis. A value was a mean±standard deviation (SD) of three independent measurements. HCV RNA titer was quantified by real-time PCR analysis. Three independent experiments were performed in triplicate.
5 derivatives (#18 to #22: refer to FIG. 2) were produced based on the inhibitor #17 showing the best effect. After the R-1 cell line was treated with each of these inhibitors or HA1077 and Y27632 at a final concentration of 20 μM for 48 hours, an HCV RNA genome level was checked by a real-time RT-PCR analysis and expressed in % with respect to a control treated with DSMO. Three independent experiments were conducted repeatedly three times. Data were expressed by mean±SD of the three experiments.
Total RNA was extracted from R-1 or HCV (JFH1)-infected cells using TRIzol LS reagent (Invitrogen, Carlsbad, Calif., USA) and purified according to the manufacturer's instructions. HCV RNA levels were quantified by RT-PCR using a primer pair and TaqMan probe targeting a region within the HCV 5′-UTR as described previously. Cellular glyceraldehyde-3-phosphate dehydrogenase was used as an internal control. Assays were performed using the DyNAmo Probe 2-step qRT-PCR Kit (Finnzymes, Espoo, Finland) and a CHROMO4 continuous fluorescence detector (Bio-Rad, Hercules, Calif., USA), according to the manufacturer's instructions.
Therefore, anti-HCV activity of 17-DMAG in the R-1 cell was tested at a level lower than 50 nM. To do so, the R-1 cell was treated with a vehicle (0.25% DMSO) or 17-DMAG for 72 hours and the cell lysates (50 μg) and antibodies specific to the proteins were immunoblotted to measure levels of the proteins. An anti-α-tubulin antibody (lower end panel) was used as an internal loading control. […]

HCV IRES = test: Dual luciferase reporter assay of translation via HCV IRES in Huh7 cell; format: cell-based, hepatitis C virus; conditions: various concentrations, 72 hours
From the text: The dual luciferase expression vector allowing cap-dependent translation of a Renilla (RLuc) reporter and HCV internal ribosome entry site (IRES)-mediated luciferase translation of a firefly luciferase (FLuc) reporter was constructed by inserting the HCV IRES and partial core protein-coding region fused to the cDNA for FLuc downstream of the Renilla luciferase reporter gene as described previously. Huh7 cells were transiently transfected with the bicistronic dual luciferase vector using Fugene HD (Roche Applied Science, Indianapolis, Ind., USA). RLuc and FLuc activities in cell lysates were quantified using the Dual-Glo luciferase assay kit (Promega) on the GloMax-Multi detection system (Promega).
Then, in order to observe an effect of 17-DMAG on translation via HCV IRES, a dual reporter assay was carried out. The Huh7 cell was transfected by a dual reporter assay plasmid (FIG. 11B, upper diagram), and treated with 17-DMAG at various concentrations for 72 hours. […] A level of the Firefly luciferase […] and a Renilla luciferase […] was measured by dual luciferase assay and expressed in % with respect to a control treated with DMSO (first bar). […]

Huh7 cells = test: Cell cycle analysis of Huh7 cells by flow cytometer; format: cell-based, human; conditions: 48 hours, 17-DMAG 500 nM
Protocol: The Huh7 cell treated with 17-DMAG or HA1077 for 48 hours was collected and washed with PBS. The cells were fixed with chilled ethanol for 30 min, treated with RNase A (100 μg/ml) for 5 min at room temperature, stained with 50 μg/mL propidium iodide (PI, Sigma-Aldrich) for 30 min at 37° C., and analyzed using a FACS Calibur flow cytometer (Becton Dickinson, San Jose, Calif., USA).
Then, a cell cycle assay was carried out by using a flow cytometer. Huh7 cells were treated with DMSO (0.25%) or 500 nM of 17-DMAG for 48 hours, and a cell cycle thereof was analyzed by using a flow cytometer to show the percentage of cells in G1, S, and G2/M phases. LY294002 as a PI3K inhibitor was used as a positive control.

CO[C@H]1/C=C\C=C(/C)C(=O)NC2=CC(=O)C(NCCN(C)C)=C(C[C@@H](C)C[C@H](OC)[C@H](O)[C@@H](C)/C=C(\C)[C@@H]1OC(N)=O)C2=O [17-DMAG, 17-(dimethylaminoethylamino)-17-demethoxygeldanamycin]
decrease in viral RNA ([1]; 50 nM 17-DMAG combined with 100 IU/mL IFN-α, 72 hours): hundredfold | inhibition of HCV RNA replication ([1]; 50 nM, 72 hours): about 50% | inhibition of virus replication ([1]; 17-DMAG 50 nM combined with HA1077 20 μM): approximately 80% | effect on translation via HCV IRES (HCV IRES): did not have an effect | cell cycle (G1, S, G2/M phases) (Huh7 cells): not significantly changed
